From patent US8735398B2 (Bristol-Myers Squibb Company, priority 2009, dated 2014)
Read-outs that look alike come from different tables or passages of the source.

Tested on: HCV 1b genotype
Assay: HCV replicon assay (HCV-neo replicon cells, wild-type)
Assay type: cell-based, Hepatitis C virus
Conditions: HCV 1b genotype replicon
In short: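 Inhibition was tested in replicon-bearing cells, both wild-type HCV-neo and lines with NS5A resistance substitutions, using the O'Boyle et al. 2005 replicon method or luciferase-reporter formats.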

[1] = Hepatitis C virus, class symbol, read-out: EC50 Range against HCV 1b
[2] = Hepatitis C virus, class symbols, read-out: EC50 Range against HCV 1b
[3] = Hepatitis C virus, read-out: EC50 1b

SMILES	EC50 [1]	EC50 [2]	also measured
COC(C(=O)N1CCC[C@H]1C(=O)Nc1ccc(-c2nnc(-c3ccc(NC(=O)[C@@H]4CCCN4C(=O)C(OC)c4ccccc4)cc3)o2)cc1)c1ccccc1 (stereo partly drawn) [RK-11, (2S,2′S)-N,N′-(1,3,4-oxadiazole-2,5-diyldi-4,1-phenylene)bis(1-(methoxy(phenyl)acetyl)-2-pyrrolidinecarboxamide)]	0.1 to 0.999 µM	–	–
O=C(Nc1ccc(-c2cnc(-c3ccc(NC(=O)[C@@H]4CCCN4C(=O)C(c4ccccc4)n4c(=O)[nH]c5ccccc54)cc3)o2)cc1)[C@@H]1CCCN1C(=O)C(c1ccccc1)n1c(=O)[nH]c2ccccc21 (stereo partly drawn) [JR-11, (2S,2′S)-N,N′-(2,5-oxazolediyldi-4,1-phenylene)bis[1-[(2,3-dihydro-2-oxo-1H-benzimidazol-1-yl)phenylacetyl]-2-pyrrolidinecarboxamide]]	–	0.1 to 0.999 µM	–
Cc1ncccc1C(=O)N1CCC[C@H]1C(=O)Nc1ccc(-c2cnc(-c3ccc(NC(=O)[C@@H]4CCCN4C(=O)c4cccnc4C)cc3)o2)cc1 [XY-30, (2S,2′S)-N,N′-(1,3-oxazole-2,5-diyldi-4,1-phenylene)bis(1-((2-methyl-3-pyridinyl)carbonyl)-2-pyrrolidinecarboxamide)]	–	1 to 10 µM	–
N#CC1(C(=O)N2CCC[C@H]2C(=O)Nc2ccc(-c3cnc(-c4ccc(NC(=O)[C@@H]5CCCN5C(=O)C5(C#N)CC5)cc4)o3)cc2)CC1 [XY-2, (2S,2′S)-N,N′-(1,3-oxazole-2,5-diyldi-4,1-phenylene)bis(1-((1-cyanocyclopropyl)carbonyl)-2-pyrrolidinecarboxamide)]	–	0.1 to 0.999 µM	–
C[C@H](NC(=O)[C@@](C)(O)c1ccccc1)C(=O)Nc1ccc(-c2cc(-c3ccc(NC(=O)[C@H](C)NC(=O)[C@@](C)(O)c4ccccc4)cc3)[nH]n2)cc1 [OL-45, (2S,2′S)-N,N′-(1H-pyrazole-3,5-diylbis(4,1-phenyleneimino((2S)-1-oxo-1,2-propanediyl)))bis(2-hydroxy-2-phenylpropanamide)]	< 0.00457 µM	–	–
COc1cccc2c(C(=O)N3CCC[C@H]3C(=O)Nc3ccc(-c4ccc(-c5ccc(NC(=O)[C@@H]6CCCN6C(=O)[C@@H](c6ccccc6)N(C)C)cc5)o4)cc3)nc(Cl)cc12 [JG-65, (2S)-1-((3-chloro-5-methoxy-1-isoquinolinyl)carbonyl)-N-(4-(5-(4-((((2S)-1-((2R)-2-(dimethylamino)-2-phenylacetyl)-2-pyrrolidinyl)carbonyl)amino)phenyl)-2-furyl)phenyl)-2-pyrrolidinecarboxamide]	< 0.00457 µM	–	–
CN1CCN(C(C(=O)N2CCC[C@H]2C(=O)Nc2ccc(-c3cnc(-c4ccc(NC(=O)[C@@H]5CCCN5C(=O)C(c5ccccc5)N5CCN(C)CC5)cc4)o3)cc2)c2ccccc2)CC1 (stereo partly drawn) [Example D-8, (2S,2′S)-N,N′-(1,3-oxazole-2,5-diyldi-4,1-phenylene)bis(1-((4-methyl-1-piperazinyl)(phenyl)acetyl)-2-pyrrolidinecarboxamide)]	0.00457 to 0.099 µM	–	–
CN(C)[C@H](C(=O)N1CCC[C@H]1C(=O)Nc1ccc(-c2nnc(-c3ccc(NC(=O)[C@@H]4CCCN4C(=O)[C@H](c4ccccc4)N(C)C)cc3)o2)cc1)c1ccccc1 [RK-39, (2S,2′S)-N,N′-(1,3,4-oxadiazole-2,5-diyldi-4,1-phenylene)bis(1-((2S)-2-(dimethylamino)-2-phenylacetyl)-2-pyrrolidinecarboxamide)]	–	< 0.00457 µM	EC50 [3]: < 0.005 µM
O=C(Nc1ccc(-c2nnc(-c3ccc(NC(=O)[C@@H]4CCCN4C(=O)c4ccco4)cc3)o2)cc1)[C@@H]1CCCN1C(=O)c1ccco1 [RK-13, (2S,2′S)-N,N′-(1,3,4-oxadiazole-2,5-diyldi-4,1-phenylene)bis(1-(2-furoyl)-2-pyrrolidinecarboxamide)]	0.1 to 0.999 µM	–	–
O=C(Nc1ccc(-c2nnc(-c3ccc(NC(=O)[C@@H]4CCCN4C(=O)[C@@H]4CCCO4)cc3)o2)cc1)[C@@H]1CCCN1C(=O)[C@@H]1CCCO1 [RK-14, (2S,2′S)-N,N′-(1,3,4-oxadiazole-2,5-diyldi-4,1-phenylene)bis(1-((2S)-tetrahydro-2-furanylcarbonyl)-2-pyrrolidinecarboxamide)]	0.1 to 0.999 µM	–	–
O=C(Nc1ccc(-c2cc(-c3ccc(NC(=O)[C@@H]4CCCN4C(=O)C4CCC4)cc3)[nH]n2)cc1)[C@@H]1CCCN1C(=O)C1CCC1 [OL-33, (2S,2′S)-N,N′-(1H-pyrazole-3,5-diyldi-4,1-phenylene)bis(1-(cyclobutylcarbonyl)-2-pyrrolidinecarboxamide)]	0.1 to 0.999 µM	–	–
O=C(Nc1ccc(-c2ccc(-c3ccc(NC(=O)[C@@H]4CCCN4C(=O)[C@H](O)c4ccccc4)cc3)o2)cc1)[C@@H]1CCCN1C(=O)[C@H](O)c1ccccc1 [JG-56, (2S,2′S)-N,N′-(2,5-furandiyldi-4,1-phenylene)bis(1-((2R)-2-hydroxy-2-phenylacetyl)-2-pyrrolidinecarboxamide)]	–	–	EC50 (class symbol, read-out: EC50 Range against HCV 1b): < 0.00457 µM; EC50 [3]: < 0.005 µM
CC(C)C(C(=O)N1CCC[C@H]1C(=O)Nc1ccc(-c2cnc(-c3ccc(NC(=O)[C@@H]4CCCN4C(=O)C(C(C)C)N4C(=O)C5C6C=CC(C6)C5C4=O)cc3)o2)cc1)N1C(=O)C2C3C=CC(C3)C2C1=O (stereo partly drawn) [JR-19, (2S,2′S)-N,N′-(2,5-oxazolediyldi-4,1-phenylene)bis[1-[2-(1,3,3a,4,7,7a-hexahydro-1,3-dioxo-4,7-methano-2H-isoindol-2-yl)-3-methyl-1-oxobutyl]-2-pyrrolidinecarboxamide]]	–	0.1 to 0.999 µM	–
CC(=O)N1CCC[C@H]1C(=O)Nc1ccc(-c2ccc(-c3ccc(NC(=O)[C@@H]4CCCN4C(C)=O)cc3)o2)cc1 [JG-55, (2S,2′S)-N,N′-(2,5-furandiyldi-4,1-phenylene)bis(1-acetyl-2-pyrrolidinecarboxamide)]	0.1 to 0.999 µM	–	–
C[C@H](NC(=O)[C@H](c1ccccc1)N(C)C)C(=O)Nc1ccc(-c2nnc(-c3ccc(NC(=O)[C@H](C)NC(=O)[C@H](c4ccccc4)N(C)C)cc3)o2)cc1 [RK-38, (2S,2′S)-N,N′-(1,3,4-oxadiazole-2,5-diyldi-4,1-phenylene)bis(2-(((2S)-2-(dimethylamino)-2-phenylacetyl)amino)propanamide)]	–	< 0.00457 µM	EC50 [3]: < 0.005 µM
CN(C)[C@H](C(=O)N1CCC[C@H]1C(=O)Nc1ccc(-c2cnc(-c3ccc(NC(=O)[C@@H]4CCCN4C(=O)[C@H]([C@H](O)c4ccccc4)N(C)C)cc3)o2)cc1)[C@H](O)c1ccccc1 [JR-14, (S,R,2S)-N,N′-(4,4′-(oxazole-2,5-diyl)bis(4,1-phenylene))bis(1-((2S,3R)-2-(dimethylamino)-3-hydroxy-3-phenylpropanoyl)pyrrolidine-2-carboxamide)]	–	–	EC50 (class symbols, read-out: EC50 Range against HCV 1b): 1 to 10 µM
Cc1cc(CC(=O)N2C[C@H](OC(C)(C)C)C[C@H]2C(=O)Nc2ccc(-c3cnc(-c4ccc(NC(=O)[C@@H]5C[C@@H](OC(C)(C)C)CN5C(=O)Cc5cc(C)no5)cc4)o3)cc2)on1 [XY-70, (2S,4R,2′S,4′R)-N,N′-(1,3-oxazole-2,5-diyldi-4,1-phenylene)bis(4-tert-butoxy-1-((3-methyl-5-isoxazolyl)acetyl)-2-pyrrolidinecarboxamide)]	–	0.00457 to 0.099 µM	–
CC[C@@H](C(=O)N1CCC[C@H]1C(=O)Nc1ccc(-c2cnc(-c3ccc(NC(=O)[C@@H]4CCCN4C(=O)[C@H](CC)c4ccccc4)cc3)o2)cc1)c1ccccc1 [XY-20, (2S,2′S)-N,N′-(1,3-oxazole-2,5-diyldi-4,1-phenylene)bis(1-((2R)-2-phenylbutanoyl)-2-pyrrolidinecarboxamide)]	–	0.00457 to 0.099 µM	EC50 [3]: 0.062 µM
